Data from patent publication US5422352A, “Slimming pharmaceutical composition” (Nycomed Dak A/S, priority 1989, dated 1995).

How the values were obtained:
Type in all cases: in vivo, human
[1] = blood pressure and heart rate in obese patients, 24 weeks (Example 5); settings: week 24
Method: Blood pressure was measured with a Trimline Sphygmomanometer (PyMaH) by the investigator every 4 weeks. After at least 10 minutes rest, the measurements were carried out in the right arm of the patient a.m. Riva-Rocci with the patient being positioned in a sitting position. A cuff of 14 to 16 cm width was employed. […] The diastolic blood pressure was determined at the manometer pressure when the Korotkoff sound quality changes from tapping to muffled.
The heart rate was determined by palpation of the peripheral heart rate in the right radial artery.
The mean difference of blood pressure, heart rate and laboratory data from the initial values (week 0) at week 12 and at week 24 was compared to initial values for each treatment group by Students' one sample t-test (SAS). Comparison of the treatment groups at a particular visit was done by one-way analysis of variance (SAS.GLM). The difference from initial values was used in order to prevent chance events influencing the results. Patients with high values, for instance, who dropped out would thus influence the mean value at the next control, without a real difference being present.

[2] = laboratory methods in healthy volunteers: serum glucose, NEFA, glycerol (Example 2); settings: oral
Method: Through the indwelling antecubital cannula, blood was sampled without stasis in iced syringes. The blood samples were then centrifuged at 4° C. and nonesterified fatty acids (NEFA) were immediately extracted from the blood samples and later determined as described in (22). The concentration of glucose in plasma was determined using the glucose oxidase method (23), the concentration of glycerol in plasma was determined as described by Laurell and Tibbling (24), the concentration of lactate in plasma was described using the method described by Noll (25), and the concentration of triglyceride in plasma was determined as described by Giegel (26). Blood samples for the determination of methylxanthine metabolites was collected in tubes containing reduced glutathione and ethylene glycol-bis(β-aminoethyl)-N,N,N',N'-tetraacetic acid (EGTA). Samples were immediately centrifuged and the plasma was stored at -40° C. until the determination of methylxanthines was performed (see Example 4). Immunoreactive insulin, pancreatic glucagon and C-peptide concentrations were measured in the plasma samples using radioimmunoassay kits purchased from Novo, Copenhagen. All plasma aliquots for determination of pancreatic hormones and methylxanthine metabolites were coded and analyzed in a random order to avoid any systematic error due to the order of analysis. The concentrations of sodium and potassium in the plasma samples were determined by flame spectrophotometry.

[3] = adverse drug reactions in obese patients, 24 weeks (Example 5)
Source text: 14 days after discontinuation of the treatment, a psychiatrist recorded any inconveniences the patient might have had during this period and physical and psychological symptoms were registered.

## Cn1c(=O)c2c(ncn2C)n(C)c1=O [Caffeine, caffeine]
[1]
  Average diastolic blood pressure decrease: 8.9 mmHg
  Average diastolic blood pressure decrease, % of initial value: 11.0%
  Average systolic blood pressure decrease: 9.3 mmHg
  Average systolic blood pressure decrease, % of initial value: 7.3%
[1]; negative = increase
  Average heart rate decrease: 5.7 BPM
  Average heart rate decrease, % of initial value: 7.3%
[2]
  serum nonesterified fatty acids and glycerol (in words): increased the concentrations of NEFA and glycerol in the serum
[2]; vs placebo
  serum glucose (in words): hyperglycemic effect
[3]; 24 weeks
  Patients complaining of adverse drug reactions: 16 patients
  Patients withdrawn due to adverse drug reactions: 2
[3]; human, in vivo
  adverse reactions / withdrawal symptoms (in words): Headache was reported by 27 patients, especially patients from the caffeine group
